Patent US20210040074A1 (The United States of America,as represented by the …, priority 2018, published 2021)

Tests used:
[1] = target: T1, D5 (Homo sapiens, UniProt P21918); test: D5 cAMP assay; conditions: fold change of dopamine EC50, 50 μM compound
Method: (§2) cAMP Accumulation Assay. Assays were performed on D1R-HEK293 (Codex Biosolutions, Gaithersburg, Md.) cells stably expressing the human D1R. HEK293 cell lines were maintained in Dulbecco's modified Eagles medium, supplemented with 10% fetal bovine serum, 100 U/ml penicillin, 100 μg/ml streptomycin, 1 mM sodium pyruvate, and 250 μg/ml G418 and incubated at 37° C., 5% CO2, and 90% humidity. […] After 18-24 h incubation at 37° C., 5% CO2, and 90% humidity, the media was removed and replaced with 5 μL/well PBS. […] Briefly, antibody and working solution was added to each well according to the manufacturer's protocol, and incubated in the dark at room temperature for 60 min. Following incubation, enzyme acceptor reagent was added to the plates and luminescence (RLU) was measured (FDSS μCell, Hamamatsu Photonics K. K., Bridgewater, N.J.) following a 3 h incubation in the dark at room temperature.

[2] = target: T1, D5; test: D5R β-arrestin recruitment assay (DiscoverX PathHunter, CHO cells); type: cell-based; set-up: host or cells: CHO-K1; conditions: fold change of dopamine EC50, 50 μM compound
Method: (§1) β-arrestin Recruitment Assay. […] Following 18-24 h of incubation, the cells were treated with the indicated concentrations of compound in PBS buffer containing 0.2 mM sodium metabisulfite, and incubated at 37° C. for 90 min. DiscoverX reagent was added to cells according to the manufacturer's protocol, followed by a 60 min incubation in the dark at room temperature. Luminescence was measured on a Hamamatsu FDSS μ-Cell reader (Hamamatsu, Bridgewater, N.J.) and data were collected using the FDSS software.
Each PAM was also examined in the absence of DA as an agonist, as indicated.

[3] = target: T2, human D1R (Homo sapiens, UniProt P21728); test: D1 cAMP accumulation assay (D1R-HEK293 cells, DiscoverX HitHunter); conditions: fold change of dopamine EC50, 50 μM compound
Method: as §2

[4] = target: T2, human D1R; test: D1R β-arrestin recruitment assay (DiscoverX PathHunter, CHO-K1 cells); conditions: fold change of dopamine EC50, 50 μM compound
Description: The DiscoverX PathHunter β-Arrestin Assay was used to measure β-arrestin reuitment to the D1R following the manufacturer's instructions.

[5] = target: T3, D4R (Homo sapiens, UniProt P21917); test: D4 β-arrestin recruitment assay (DiscoverX PathHunter, CHO-K1 cells); type: cell-based; set-up: inferred from the same PathHunter system described for D1R and D5R; host or cells: CHO-K1; conditions: fold change of dopamine EC50, 50 μM compound
T3 sequence (P21917 1-419): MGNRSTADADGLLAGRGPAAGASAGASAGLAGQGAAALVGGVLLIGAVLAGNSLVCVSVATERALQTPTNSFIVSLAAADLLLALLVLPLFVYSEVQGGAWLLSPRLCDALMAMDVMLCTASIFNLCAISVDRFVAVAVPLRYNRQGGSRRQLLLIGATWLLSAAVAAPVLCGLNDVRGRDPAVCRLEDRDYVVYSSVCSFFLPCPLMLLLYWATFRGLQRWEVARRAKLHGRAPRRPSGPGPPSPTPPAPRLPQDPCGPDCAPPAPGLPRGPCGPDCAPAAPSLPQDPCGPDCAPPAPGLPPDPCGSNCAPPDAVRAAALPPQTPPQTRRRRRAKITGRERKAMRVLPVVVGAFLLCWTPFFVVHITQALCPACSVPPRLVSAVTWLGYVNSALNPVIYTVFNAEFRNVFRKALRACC
Method: as §1, with “Assay. Agonist-mediated recruitment of β-arrestin-2 to all five DARs was determined using the DiscoveRx PathHunter complementation assay (DiscoverX Inc, Fremont, Calif.), as previously described (Free, et. al., 2014; Conroy, et. al., 2015).” for “Assay.”

[6] = target: D2R (Homo sapiens, UniProt P14416); test: D2R β-arrestin BRET assay; conditions: dopamine alone; mean ± SEM
Method: (§3) Bioluminescence Resonance Energy Transfer (BRET) Assays. Experiments were performed in HEK239 cells transiently transfected with D1R-RLuc8 and β-arrestin-mVenus (β-arrestin BRET) or Gαs-mVenus+β1+γ2 (Gs BRET) using the polyethylenimine (PEI) transfection method. […] Appropriate amounts of DNA were combined with 3 μg/μL PEI per μg of DNA in nonsupplemented DMEM and incubated with the cells overnight. Experiments were performed 48 hours post-transfection. On experiment day, cells were collected and resuspended in Dulbecco's Phosphate-Buffered Saline (DPBS) with Ca2+ and Mg2++0.2 mM sodium metabisulfite+5.5 mM glucose.

[7] = target: β2AR (Homo sapiens, UniProt P07550); test: β2AR β-arrestin BRET assay; conditions: epinephrine alone; mean ± SEM
β2AR, sequence (P07550 whole entry): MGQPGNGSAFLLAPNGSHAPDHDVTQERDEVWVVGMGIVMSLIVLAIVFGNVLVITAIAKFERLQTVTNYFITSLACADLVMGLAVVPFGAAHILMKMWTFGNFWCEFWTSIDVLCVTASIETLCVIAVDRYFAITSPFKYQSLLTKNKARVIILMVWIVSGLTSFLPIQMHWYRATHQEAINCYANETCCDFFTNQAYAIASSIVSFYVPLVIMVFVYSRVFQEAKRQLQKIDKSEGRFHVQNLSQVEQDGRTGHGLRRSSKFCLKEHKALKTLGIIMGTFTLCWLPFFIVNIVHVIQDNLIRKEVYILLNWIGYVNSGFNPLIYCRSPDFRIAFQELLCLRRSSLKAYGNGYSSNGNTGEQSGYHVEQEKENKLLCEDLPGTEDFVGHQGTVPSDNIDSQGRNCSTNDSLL
Method: as §3

T1 sequence (P21918 whole entry): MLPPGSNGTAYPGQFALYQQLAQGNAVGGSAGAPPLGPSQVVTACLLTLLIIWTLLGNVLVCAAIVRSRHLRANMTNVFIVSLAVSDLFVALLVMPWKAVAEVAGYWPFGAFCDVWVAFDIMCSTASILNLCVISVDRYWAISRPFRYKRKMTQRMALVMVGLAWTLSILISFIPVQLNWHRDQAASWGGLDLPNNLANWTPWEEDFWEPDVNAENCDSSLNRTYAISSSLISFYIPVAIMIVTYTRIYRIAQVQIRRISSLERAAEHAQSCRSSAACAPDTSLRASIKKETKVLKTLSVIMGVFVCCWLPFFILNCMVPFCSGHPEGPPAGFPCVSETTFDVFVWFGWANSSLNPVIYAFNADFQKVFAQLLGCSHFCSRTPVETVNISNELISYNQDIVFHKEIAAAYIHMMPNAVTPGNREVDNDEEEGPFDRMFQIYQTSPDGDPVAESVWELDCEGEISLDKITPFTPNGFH
T2 sequence (P21728 whole entry): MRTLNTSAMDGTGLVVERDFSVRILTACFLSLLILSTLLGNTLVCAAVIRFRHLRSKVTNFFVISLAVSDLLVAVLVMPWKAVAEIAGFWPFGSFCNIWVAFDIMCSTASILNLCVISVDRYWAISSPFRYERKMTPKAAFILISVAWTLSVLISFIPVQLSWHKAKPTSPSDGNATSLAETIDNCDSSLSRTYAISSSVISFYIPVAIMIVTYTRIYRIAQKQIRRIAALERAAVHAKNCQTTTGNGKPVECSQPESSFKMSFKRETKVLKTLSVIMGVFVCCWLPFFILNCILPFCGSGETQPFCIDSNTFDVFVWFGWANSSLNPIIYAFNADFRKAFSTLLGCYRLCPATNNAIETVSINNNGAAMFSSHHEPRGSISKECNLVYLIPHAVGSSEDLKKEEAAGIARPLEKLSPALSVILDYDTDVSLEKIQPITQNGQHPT
D2R, sequence (P14416 whole entry): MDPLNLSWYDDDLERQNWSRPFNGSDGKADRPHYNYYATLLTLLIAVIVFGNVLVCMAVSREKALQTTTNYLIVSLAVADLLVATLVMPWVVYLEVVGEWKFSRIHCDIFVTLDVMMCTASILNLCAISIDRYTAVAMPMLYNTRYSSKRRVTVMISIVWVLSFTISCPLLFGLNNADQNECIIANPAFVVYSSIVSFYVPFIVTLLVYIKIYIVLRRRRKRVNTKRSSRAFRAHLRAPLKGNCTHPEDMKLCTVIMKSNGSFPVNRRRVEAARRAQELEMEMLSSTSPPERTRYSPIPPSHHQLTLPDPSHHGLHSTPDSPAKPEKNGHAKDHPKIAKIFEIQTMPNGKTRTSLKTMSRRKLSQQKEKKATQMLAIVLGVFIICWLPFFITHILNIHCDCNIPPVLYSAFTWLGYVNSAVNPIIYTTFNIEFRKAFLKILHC

SMILES | D5 cAMP: DA + 50 μM PAM, Fold Change EC50 [1] | D5 Beta-Arrestin: DA + 50 μM PAM, Fold Change EC50 [2] | D1 cAMP: DA + 50 μM PAM, Fold Chg EC50 [3] | D1 Beta-Arrestin: DA + 50 μM PAM, Fold Chg EC50 [4] | D4 Beta-Arrestin: DA + 50 μM PAM, Fold Change EC50 [5] | D2R Agonist Emax (% Ctrl) [6] | β2AR Agonist Emax (% Ctrl) [7]
NC(=O)c1c(NC(=O)c2ccccn2)sc2c1CCCC2 [Compound 36] | 0.86 | 0.26 | 2.50 | 0.83 | 1.19 | – | –
CC1CCc2c(sc(NC(=O)c3ccccn3)c2C(N)=O)C1 (stereo not drawn) [Compound 37] | 1.64 | 0.47 | 1.61 | 1.05 | 1.06 | – | –
NCCc1ccc(O)c(O)c1 [Dopamine, dopamine, reference compound] | – | – | – | – | – | 100 ± 12.48 % Ctrl | –
CNC[C@H](O)c1ccc(O)c(O)c1 [Epinephrine, epinephrine, reference compound] | – | – | – | – | – | – | 99.9 ± 1.18 % Ctrl
